# Experimental data published in patent US20220347299A1, “FLUORESCENT SYSTEMS FOR BIOLOGICAL IMAGING AND USES THEREOF” (LIGHTOX LIMITED, priority 2019, published 2022).
# Columns and labels:
# HaCaT keratinocytes = experiment: Co-staining with organelle markers, co-localisation (PCC); assay type: cell-based; settings: 1 μM compound, 30 minutes, BODIPY ER-Tracker Red
# Protocol: To study the localisation of compounds in biological cells, co-staining of compounds of formula I with specific organelle markers (fluorescent dyes and antibodies) within biological cells was conducted. The following compounds were studied: compounds 6, 7, 12, 13, 14 and 15. HaCaT keratinocyte cell lines were used for the following experimental procedures. The cells were incubated in cell culture media (94% Dulbecco's Modified Eagle Medium (DMEM), 5% Foetal Bovine Serum (FBS) and 1% Penicillin Streptomycin solution (Pen-Strep). The cells were plated in 8-well plates, at a concentration of 25,000 cells per ml. 200 μl of cell suspension was added to each well, and the cells were incubated for 2 days before staining and imaging was carried out. In order to visualise the mitochondria, cells were probed with the mitochondrial dye MitoTracker® Deep Red. Cells to be stained were incubated with 200 μl MitoTracker® Deep Red solution (200 nM MitoTracker® and 1 μM Formula I compound in cell culture media) per well (N=3) for 30 minutes. Nile Red was used to identify lipids within the cells. 200 μl Nile Red Lipophilic dye (10 μg/ml Nile Red and 1 μM Formula I compound in cell culture media) was added to each well (N=3) and incubated for 30 minutes. For the detection of lysosomes within the cells, LysoTracker® Red DND-99 dye was used. 200 μl LysoTracker® Red DND-99 (50 nM LysoTracker® and 1 μM Formula I compound solution in cell culture media) was added to each well (N=3) and incubated for 30 minutes. For visualisation of the endoplasmic reticulum (ER), cells were stained with BODIPY® ER-Tracker® Red. 200 μl BODIPY ER-Tracker® Red (1 μM BODIPY® and 1 μM Formula I compound solution in cell culture media) was added to each well (N=3) and incubated for 30 minutes. Following incubation, the cell culture media containing dye was removed, and cells were washed twice with 200 μl phosphate buffered saline (PBS). After washing, 200 μl PBS was added into each well for imaging. For visualisation of the nuclear lamina, cells were probed with an anti-lamin A/C antibody. The cells were plated on 22×22 mm cover slips (10,000 cells/ml) and incubated for 2 days before staining. The cells were washed with PBS to remove excess media before staining. The cells were fixed with 4% paraformaldehyde (PFA) for 10 minutes at room temperature, before being washed twice in PBS for 5 minutes. Following washing, the cells were permeabilised in 0.4% Triton X-100 in PBS for 10 minutes. The cells were subsequently washed three times in PBS for 5 minutes, before being incubated in blocking buffer (1% BSA, 0.1% fish gelatine and 0.1% Triton X-100 in PBS) for 15 minutes at room temperature. The cells were incubated in primary antibody (mouse anti-lamin A/C IgG in blocking buffer) for 1 hour at room temperature. The cells were then washed twice in blocking buffer and incubated in secondary antibody (anti-mouse Alexa-594 IgG in blocking buffer) for 30 minutes at room temperature. Cells were washed twice in PBS for 10 minutes at room temperature. For cell staining with compounds of formula I, 5 μM of the compound of formula I in PBS was added to the cells for 30 minutes at room temperature. Cells were then washed five times for 5 minutes in PBS. Following washing, the cells were mounted onto non-charged microscopy slides using 6 μl Mowiol® per cover slip as mounting media. A Zeiss 880 confocal microscope was used for all the imaging work. [table] Image) Coloc2 software was used to calculate co-localization statistics between the compounds of formula I and the organelle marker images. The background was subtracted from each image and a region of interest (ROI) was used to target the analysis. The point spread function (PSF) of each image was calculated as 2.0 and Coastes' iterations was set to 100. The statistic quantified was the Pearson's Correlation Coefficient (PCC). PCC gives a number ranging from +1 to −1:1=perfect co-localisation; 0=no relationship; and, −1=perfect anti-co-localisation. […]
# [1] = Peak absorption and fluorescence emission wavelengths in solvents; assay type: physicochemical; settings: for λem(max)/nm: 100 nM, excitation at peak of absorption; for λabs(max)/nm: 10 μM
# Protocol: Peak absorption and fluorescence emission wavelengths of compounds 6, 7, 12, 13, 14, 15, 19, 23, 27, 30 and 34 were measured in a variety of solvents, and the results are shown in Table 1. Absorption measurements were recorded at a concentration of 10 μM, and emission measurements were recorded at a concentration of 100 nM. Emission spectra were recorded with excitation at the peak of absorption (S0→S1).
# black-grass cells = experiment: Cytotoxicity assay (FDA/PI) in black-grass cell suspension culture; assay type: cell-based
# Protocol: 5 mL of black-grass cell suspension culture was treated with 0.1, 1, 5, and 10 μM of compound numbers 7, 14, 12 and 15 for 1 hour at room temperature. Cells treated with 0.1% DMSO were used as a control. Cells were irradiated (˜365 nm) for 5 minutes before being incubated at 25° C., 150 rpm for 24 hours. In addition, the cytotoxicity of the compounds without irradiation was also assessed. Cell viability of five biological replicates for each concentration were determined via fluorescence assay (FDA/PI) assay. Percentage of cell viability was calculated using following formulation:
# % viability={live cells (FDA)/(live cells+dead cells)}×100
# The statistical analysis of percentage of cell viability was performed through one-way analysis of variance (ANOVA) followed by Tukey HSD posthoc test using SPSS 23 (IBM, Chicago, Ill., USA).
# S. epidermidis [2] = experiment: Baclight staining (propidium iodide / Syto 9), widefield imaging, S. epidermidis; assay type: cell-based, Staphylococcus epidermis; settings: 1 μM
# Protocol: Samples prepared according to Table 9 were treated with compounds by diluting 10 mM of stock solution in media to make a 100 μM concentration. This solution was then further diluted 1:10 and 1:100 in media to make 10 μM and 1 μM media solutions containing the compound. 50 μl of cell culture were then added to the 100 μM, 10 μM and 1 μM compound-containing media preparations. Following the treatment outlined in Table 9, each of the three bacterial strains were stained using a Baclight™ staining kit containing separate solutions of Syto™ 9 and Propidium Iodide. One extra sample treated with 0.1 μM of each compound was also included in this assay. M. smegmatis, S. epidermis and B. subtilis were stained with propidium iodide to show non-viable cells and with Syto 9 to show all cells. The following staining procedure was used: • 1. 1 ml of each sample was eluted into a well of a 12-well plate; • 2. One half of the 12 well plate was irradiated at approximately 15 mW/cm^2 for 5 mins; • 3. The content of each well was eluted into separate Eppendorfs and centrifuged at 10,000 r.p.m for 3 rains to form a culture pellet; • 4. Media was then removed, and each pellet resuspended in 200 μl of 1× PBS before being centrifuged at 10,000 r.p.m. for 3 mins. • 5. A preparation of Baclight™-staining solution was made using 1 ml 1× PBS, 3 μl propidium iodide and 3 μl Syto™ 9; • 6. […]
# S. epidermidis [3] = experiment: Overnight growth curve (OD 600 nm) cytotoxicity assay, S. epidermidis; assay type: cell-based, Staphylococcus epidermis
# Protocol: A sample of S. epidermidis was taken from a plate culture and inoculated into Luria Broth to culture overnight at 30° C. for approximately 16 hours.
# Samples were incubated in darkness at room temperature for approximately 2 hrs. A black clear bottom Costar™-96 well plate was then filled, with 200 μl of sample in each well Cells were irradiated for 5 minutes at approximately 15 mW/cm^2. The cytotoxicity of the compounds without irradiation was also assessed.
# The 96 well plate was put into the plate reader and set up to run a growth curve protocol using the following parameters: • Incubation temperature: 37° C. • OD read wavelength 600 nm • 250 cycles, readings every 5 rains • Shaking for 5 s pre-reading
# This was left to run overnight to obtain kinetic growth curves based on optical density readings.
# Bacillus subtilis = experiment: Overnight growth curve (OD 600 nm) cytotoxicity assay, B. subtilis; assay type: cell-based
# Protocol: A sample of B. subtilis was taken from a plate culture and inoculated into Luria Broth to culture overnight at 37° C. for approximately 16 hours. [table] Samples were incubated in darkness at room temperature for approximately 2 hrs. A black clear bottom Costar™-96 well plate was then filled, with 200 μl of sample in each well Cells were irradiated for 5 minutes at approximately 15 mW/cm^2. The cytotoxicity of the compounds without irradiation was also assessed. The 96 well plate was put into the plate reader and set up to run a growth curve protocol using the following parameters: • Incubation temperature: 37° C. • OD read wavelength 600 nm • 250 cycles, readings every 5 rains • Shaking for 5 s pre-reading This was left to run overnight to obtain kinetic growth curves based on optical density readings.
# [4] = 0.1, 1, 5, 10 μM, with and without ~365 nm irradiation 5 minutes, 24 hours
SMILES,average PCC Value with BODIPY ER-Tracker (HaCaT keratinocytes),λem(max)/nm ([1]; DCM),λabs(max)/nm ([1]; DCM),λem(max)/nm ([1]; Toluene),λabs(max)/nm ([1]; Toluene),black-grass cell viability (black-grass cells; [4]),"black-grass cell viability (black-grass cells; 1 μM, also in non-irradiation treatment)","dependence of cytotoxic effect on irradiation (black-grass cells; black-grass cells, ~365 nm, 5 minutes)","non-viable (red, propidium iodide) cells compared with untreated controls (S. epidermidis [2])","lag phase of growth of S. epidermidis, photoactivated (S. epidermidis [3]; 1 μM, 405 nm, 5 min, approximately 15 mW/cm^2, untreated lag around 2 hrs)","growth of S. epidermidis, non-photoactivated (S. epidermidis [3]; 1 μM, not irradiated)","growth of S. epidermidis (S. epidermidis [3]; 100 and 10μ concentrations, with or without photoactivation)","growth of B. subtilis (Bacillus subtilis; 10 μM, effect much more significant in the radiated sample)","growth of B. subtilis, radiated (Bacillus subtilis; 5 and 1 μM, 405 nm, 5 min)"
"COC(=O)/C=C/c1ccc(C#Cc2ccc(N(C)CCNS(=O)(=O)c3ccc(C)cc3)cc2)cc1 [Compound 15, methyl (2E)-3-{4-[2-(4-{methyl[2-(4-methylbenzenesulfonamido)ethyl]amino}phenyl)ethynyl]phenyl}prop-2-enoate]",0.30,545 nm,377 nm,473 nm,381 nm,did not reduce black-grass cell viability regardless of concentration or irradiation treatment,–,–,–,–,–,–,–,–
"COC(=O)/C=C/c1ccc(C#Cc2ccc(N3CCN(CCC[P+](c4ccccc4)(c4ccccc4)c4ccccc4)CC3)cc2)cc1.[Br-] [Compound 14, (3-{4-[4-(2-{4-[(1E)-3-methoxy-3-oxoprop-1-en-1-yl]phenyl}ethynyl)phenyl]piperazin-1-yl}propyl)triphenylphosphonium bromide]",0.68,531 nm,361 nm,506 nm,367 nm,–,significantly reduced,independent of irradiation,–,–,–,–,–,–
"COC(=O)/C=C/c1ccc(C#Cc2ccc(N3CCN(C(C)=O)CC3)cc2)cc1 [Compound 13, methyl (2E)-3-(4-{2-[4-(4-acetylpiperazin-1-yl)phenyl]ethynyl}phenyl) prop-2-enoate]",−0.18,547 nm,361 nm,464 nm,358 nm,–,–,–,–,–,–,–,–,–

# Now from value to compound, other results behind:
average PCC Value with BODIPY ER-Tracker (HaCaT keratinocytes),λem(max)/nm ([1]; DCM),λabs(max)/nm ([1]; DCM),λem(max)/nm ([1]; Toluene),λabs(max)/nm ([1]; Toluene),SMILES,black-grass cell viability (black-grass cells; [4]),"black-grass cell viability (black-grass cells; 1 μM, also in non-irradiation treatment)","dependence of cytotoxic effect on irradiation (black-grass cells; black-grass cells, ~365 nm, 5 minutes)","non-viable (red, propidium iodide) cells compared with untreated controls (S. epidermidis [2])","lag phase of growth of S. epidermidis, photoactivated (S. epidermidis [3]; 1 μM, 405 nm, 5 min, approximately 15 mW/cm^2, untreated lag around 2 hrs)","growth of S. epidermidis, non-photoactivated (S. epidermidis [3]; 1 μM, not irradiated)","growth of S. epidermidis (S. epidermidis [3]; 100 and 10μ concentrations, with or without photoactivation)","growth of B. subtilis (Bacillus subtilis; 10 μM, effect much more significant in the radiated sample)","growth of B. subtilis, radiated (Bacillus subtilis; 5 and 1 μM, 405 nm, 5 min)"
0.32,563 nm,362 nm,504 nm,361 nm,"COC(=O)/C=C/c1ccc(C#Cc2ccc(N3CCNCC3)cc2)cc1 [Compound 7, methyl (2E)-3-(4-{2-[4-(piperazin-1-yl)phenyl]ethynyl}phenyl)prop-2-enoate]",did not reduce black-grass cell viability regardless of concentration or irradiation treatment,–,–,–,–,–,–,–,–
0.48,550 nm,368 nm,482 nm,358 nm,"CC(C)(C)OC(=O)/C=C/c1ccc(C#Cc2ccc(N3CCNCC3)cc2)cc1 [Compound 6, tert-butyl (2E)-3-(4-{2-[4-(piperazin-1-yl)phenyl]ethynyl}phenyl)prop-2-enoate]",–,–,–,increase in red fluorescent cells,around 15 hrs,minor impact on growth by extended lag phase,no growth is evident regardless of any photoactivation,growth is reduced and lag time extended,some growth inhibition
